Assay results: patent US9115073B2, “1,3-diphenylpropane derivatives, preparations and uses thereof” (GENFIT, priority 2011, dated 2015)

What was measured:
db/db mice = test: Diabetes model (db/db mice): non-fasting glycemia and HbA1c; assay type: in vivo, mouse
Procedure: Diabetes Model (db/db Mice)
The male db/db mice (8 to 9 week-old) were purchased from CERJ JANVIER (Le Genest Saint Isle, France). Animal care and handling was performed according to the Declaration of Helsinki and was approved by the local ethics committees. The animals were kept under a 12 hour light/dark standard light cycle and had free access to water and food. Animals were fed standard rodent chow diet (A03 SAFE, Augy, France). Mice were randomly assigned into different treatment groups, weighed and dosed by oral gavage (10 ml/kg body weight) once daily in the morning, either with the vehicle or with the compound. The vehicle used was 0.1% Tween 80 (Polyoxyethylenesorbitan monooleate) and 1% carboxymethylcellulose in 98.9% distilled water. The entire treatment protocol took 37 days. Non-fasting glycemia was measured at 8 A.M. with the Smart Check blood glucose monitoring system, in mice that have had unrestricted access to food and water throughout the night. The blood concentration of the glycosylated hemoglobin A1c was determined using the Randox kit for Daytona automate (Randox, cat# HA 3830) according to the manufacturer's recommendations. The HbA1c result was calculated as a percentage of the total hemoglobin concentration.

[1] = Compound pharmacokinetics study in mice (plasma and brain); assay type: in vivo; settings: mouse; for AUC(0-t): iv (2 mpk) or PO (10 mpk), followed for 24 hours
Procedure: Compound Pharmacokinetics Study in Mice
The compound was administered to six male swiss mice (five weeks old) by the PO route and six male mice by the iv route (caudal vein). […] For the PO route (10 mg/kg), the compound was dissolved in a solution of 0.5% Methyl cellulose (ref sigma M0262) and 0.3% Polysorbate 80 (Tween 80—ref sigma P8074). During the iv administration and blood sampling animals were anesthetized with Isofluorane® (from Belamont) using an anaesthetic system (Minerve). At the precise time-point, blood samplings were done at the retro-orbital sinus, with a capillary tube. The blood volume collected per each time-point was 0.2-0.3 ml. Blood samples were collected into tubes containing both lithium and heparin and then centrifuged at 2500 rpm at 4° C. Plasma was removed and transferred into polypropylene tubes. Individual plasma aliquots were frozen at −20° C. (±5° C.) and stored until analysis.
After blood sampling, the animals were perfused with 7 ml cold saline solution directly into the heart to extract the maximum of blood from the brain vasculature. Animals were then beheaded and the brain tissue collected and frozen at −20° C. (±5° C.) and stored until analysis. Prior to the sample analysis, the suitability of the analytical method to detect the compounds to be evaluated was performed as described below. The molecular and daughter ions were selected for each molecule by direct infusion into the MS-MS system. For those plasma samples which are mixed prior to analysis, precaution was taken to avoid mixing common moieties both with regards to the parent compounds as well as potential metabolites. According to the expected sensitivity, 8 point calibration standards (1, 5, 10, 50, 100, 500, 1000 and 5000 ng/mL) were run using standard conditions which consist to LC/MS/MS system with C18 column after precipitation of the plasma proteins with acetonitrile before the start of the analytical test. Calibration standards were performed in each matrix (plasma and brain). Prior to analysis, 100 μL of each plasma sample was mixed with 300 μL acetonitrile. Following protein precipitation, samples were vortex mixed for 30 seconds, centrifuged 5 min at 15000 tr/min and the supernatant was removed. Analyses were performed using LC/MS/MS determination according to previous analytical test results. Brains were homogenized with a potter using water (1/1, w/w). 100 μl of the homogenate was mixed with 100 μl of acetonitrile. The mixture was mixed (Vortex) for 30 seconds, then centrifuged during 5 min at 15000 tr/min. Brain homogenate supernatants were directly measured by LC/MS/MS after centrifugation. LC-MS/MS system was used with a C18 Kromasil column and API4000® from Applied Biosystem or Quattro® from Waters as mass spectrometers.

APPPS1 mice = test: Alzheimer's disease model (APPPS1 mice): Morris-Water-Maze test; assay type: in vivo, mouse; settings: 60 days, +/- standard deviation
[2] = treated group, start of study period

COC(c1ccc(OC(F)(F)F)cc1)C1CC1c1cc(C)c(OC(C)(C)C(=O)O)c(C)c1 (single isomer, unassigned) [Cpd 14-1-2, 2-(4-(2-(methoxy(4-(trifluoromethoxy)phenyl)methyl)cyclopropyl)-2,6-dimethylphenoxy)-2-methylpropanoic acid]
Non-fasting glycemia (db/db mice; 3 mg per kg per day by gavage, day 30): 146 mg/dL
glycated hemoglobin (HbA1c) (db/db mice; 3 mg per kg per day by gavage, day 37): 4.12%
decrease of non-fasting glycemia during the study period (db/db mice; 3 mg per kg per day by gavage, start to day 30): 48%
change in HbA1c during the study period (db/db mice; 3 mg per kg per day by gavage, start to day 37): no significant change
non-fasting glycemia lower as compared to untreated controls (db/db mice; 3 mg per kg per day, day 30, t-test p-value <0.0001): 60%
HbA1c lower as compared to the diabetic controls (db/db mice; 3 mg per kg per day, day 37, t-test p-value <0.01): 28%
Non-fasting glycemia (db/db mice; [2]): 258 mg/dL
glycated hemoglobin (HbA1c) (db/db mice; [2]): 4.16%
bioavailability ([1]; male, Swiss, plasma, PO (10 mpk) versus iv (2 mpk), read-out: F % (bioavailability)): 93%
AUC(0-t) ([1]; male, Swiss, brain): 26700 ng·h/mL
Kp ([1]; male, Swiss, from AUC comparison brain to plasma, read-out: part of the administered compound that penetrates into the brain): 0.37
AUC(0-t) ([1]; male, Swiss, plasma): 71800 ng·h/mL
brain/plasma ratio ([1]; AUC comparison (brain exposure to plasma exposure ratio)): 0.37
F % (bioavailability) ([1]; PO (10 mpk) versus iv (2 mpk)): 92.9%
Morris-Water maze distance, mean reduction from untreated APPPS1 mice (APPPS1 mice; 1 mpk per day): 22.6 % +/− 21% (*)
Morris-Water maze latency, mean reduction from untreated APPPS1 mice (APPPS1 mice; 1 mpk per day): 45.6 % +/− 16 % (**)
Morris-Water maze distance, mean reduction from untreated APPPS1 mice (APPPS1 mice; 10 mpk per day): 31.1 % +/− 18 % (**)
Morris-Water maze latency, mean reduction from untreated APPPS1 mice (APPPS1 mice; 10 mpk per day): 39.9 % +/− 20 % (**)
